From patent publication US11191811B2, “Osteocalcin as a treatment for frailty associated with aging” (THE TRUSTEES OF COLUMBIA UNIVERSITY IN THE CITY OF NEW YORK, priority 2014, dated 2021) come the findings set out here.

Test [1] deals with WT mice. The test can be described thus: Endurance exercise on treadmill until exhaustion. Format: in vivo, mouse. As to conditions: for muscle function / exercise capacity of young and old WT mice: 3 to 15 month-old WT mice. How it is done:
First, whether a single intraperitoneal injection of uncarboxylated mouse osteocalcin (osteocalcin) (100 ng/g of body weight) immediately before exercise would improve the exercise capacity of 3 month-old WT mice was tested.
To determine if osteocalcin has the same ability in older mice, 12 and 15 month-old mice that have low circulating osteocalcin levels were injected prior to running with 500 ng/g of body weight of osteocalcin in order to raise their circulating levels substantially. […] This was due to an increase in the phosphorylation of Akt, AMPK and HSL, as well as in glucose uptake, that occurred to a greater extent in oxidative muscles that express Gprc6a at the highest level, than in glycolytic muscles (FIG. 31C-F). Whether chronic delivery of osteocalcin through mini-pumps (90 ng/hour) for 28 days would increase muscle function in 9 month old mice that have the lowest circulating osteocalcin levels was also tested. […] This improved ability to perform exercise was caused in part by an increase in the expression in muscle of the fatty acid transporter Fatp1 and an activation of the Akt pathway (FIG. 31H-).
For exercise studies, all mice were trained before the tests to run on a treadmill (Harvard apparatus) for three days (10 minutes/day). The day of the test, mice were acclimated to the treadmill for 5 minutes followed by 10 minutes running at a constant speed of 17 cm/s, then a gradual increase in the speed up to 30 cm/s. Next, mice were run until exhaustion as defined by the number of times a mouse fell off to the electric grid during one minute (>15). Measurements of muscle strength were carried out using a grip strength meter (Columbus instruments). Values are expressed as the average of five single measurements, taken one minute apart from each other. For all biochemical and metabolic analyses performed, blood/tissues were collected and processed either at rest or at the end of a 40 min run (30 cm/s).

The test system of test [2] is mice. Kind of test: Mouse asthma model (albumin sensitisation, nebulized albumin). The format is in vivo. As to conditions: osteocalcin given by nebulization together with the nebulized albumin. From the text:
In a mouse asthma model that involves intraperitoneal injection of albumin (to sensitize the mice) followed a week later by nebulized administration of albumin to the lungs of the mice, osteocalcin given by nebulization together with the nebulized albumin prevented the bronchoconstriction that would have otherwise been observed.

The subject of test [3] is C2C12 myoblasts. Kind of test: GLUT4 translocation to the plasma membrane (flow cytometry). Format: cell-based. From the text:
Rather, it promoted the translocation of GLUT4 to the plasma membrane of C2C12 myoblasts that express both Gprc6a and Glut4. A similar increase in the accumulation of GLUT4 was observed after exercise in WT but not in Gprc6aMck−/− mice (FIG. 26I). Signaling through GPCRs can favor PI3K activation, leading to Akt phosphorylation, an event that favors the translocation of GLUT4 to the plasma membrane (Lopez-Ilasaca et al., 1997, Science 275:394-397). In agreement with this notion, Akt phosphorylation in muscles of Gprc6Mck−/− mice was decreased compared to muscles of control mice after exercise. […]
Glucose and insulin tolerance tests were performed as previously described (Lee et al., 2007, Cell 130:456-469). For in vivo glucose uptake, a bolus of 2-deoxy-d-[^3H]glucose (^3H-2-DG, Perkin Elmer) (10 μCi) was administered before an endurance run. ^3H-2-DG and ^3H-2-DG-6-P content in muscle was determined by liquid scintillation counter and normalized to muscle weight. […] GLUT4 translocation was determined by flow cytometry using an antibody against the extracellular domain of the GLUT4 protein (Santa Cruz, Sc-1606). […] To analyze mitochondrial function, myofibers were treated with three compounds in succession (oligomycin 10 μg/ml, FCCP 200 μM, rotenone 0.2 μM) and OCR was recorded following administration of each of them.

Test [4] relates to WT myotubes. The test can be described thus: Western blot of Akt phosphorylation (Ser473) in cultured myotubes. Format: cell-based, mouse. The conditions noted are these: Ocn 10 ng/ml. How it is done:
FIG. 26. Osteocalcin signaling in myofibers promotes glucose uptake. (A) VO2, (B) VO2 max and (C) RER in female Gprc6af/f and Gprc6aMck−/− mice during a gradual speed increase test. (D-E) Uptake of ^3H-2-deoxyglucose (^3H-2-DG) in WT and Gprc6a−/− myotubes treated with vehicle or Ocn (dose indicated in panel D, 10 ng/ml in panel E). (F) Uptake of ^3H-2-DG in glycolytic (Gly—white quadriceps) and oxidative (Ox—red quadriceps) muscles after a single bout of exercise in Gprc6af/f and Gprc6aMck^−/− mice (n=4 per group). (G) Blood glucose levels in Gprc6af/f and Gprc6aMck−/− mice after running on a treadmill until exhaustion (n=4 per group). (H) Blood glucose levels in Gprc6af/f and Gprc6aHsa−/− mice after running on a treadmill until exhaustion (n=4 per group). (I) Western blot analyses of Akt phosphorylation (Ser473) in WT myotubes treated with Ocn (10 ng/ml) and in muscles of WT mice injected with Ocn (500 ng/g) after a single bout of exercise. (J) Western blot analyses of Akt phosphorylation (Ser473) in Gprc6af/f and Gprc6aMck−/− muscles after a single bout of exercise. (K) Glycogen content and glycogen breakdown in Gprc6af/f and Gprc6aMck−/− muscles at rest and after exercise.
Culture of skeletal muscle myoblasts from 7 day-old mice was performed as described (Gharaibeh et al., 2008, Nature Protocols 3:1501-1509). […]

“Also recorded” adds a separate entry of the source.

Regarding “uncarboxylated osteocalcin: Recombinant uncarboxylated mouse osteocalcin, bacterially produced, purified on glutathione beads and cleaved from the GST subunit by thrombin (YLGASVPSPDPLEPTREQCELNPACDELSDQYGLKTAYKRIYGITI)”, the “increase of time and distance run on the treadmill before exhaustion” value in test [1] (3 month-old WT mice, single intraperitoneal injection 100 ng/g of body weight immediately before exercise) is reported as “over 20%”. The entries for the “muscle function / exercise capacity of young and old WT mice” value in test [1] (listed as Osteocalcin) and in test [1] (listed as osteocalcin) were “increases” and “can improve”, respectively. Moreover, the “time and distance run / exercise capacity of older mice” value in test [1] (12 and 15 month-old mice, 500 ng/g of body weight injected prior to running) was “the exercise capacity of 3 month-old mice; also recorded: the same time and distance as 3 month-old untreated mice; also recorded: run like young mice”. Besides, the “time and distance run on the treadmill before exhaustion” value in test [1] (mini-pumps 90 ng/hour for 28 days, 9 month old mice) is reported as “significant increase”. Also, the “increase of distance run” value in test [1] (wild-type mice, simple injection while they run on a treadmill) is given as 20%. In addition, in test [1] (young (3 month-old) WT mice, exogenous osteocalcin), the “exercise capacity of young mice” value is on record as “increases; also recorded: sufficient to increase”. For the same substance, the bronchoconstriction entry in test [2] was “prevented”. The “translocation of GLUT4 to the plasma membrane” value in test [3] is recorded as “promoted”. The “phosphorylation of Akt in cultured myotubes” value in test [4] is listed as “induced”.
